ChEMBL document CHEMBL5316329, “Structure-Based Optimization of 2,4,5-Trisubstituted Pyrimidines as Potent HIV-1 Non-Nucleoside Reverse Transcriptase Inhibitors: Exploiting the Tolerant Regions of the Non-Nucleoside Reverse Transcriptase Inhibitors' Binding Pocket” (J Med Chem, 2023)

Legend:
[1] = tested on: Human immunodeficiency virus 1; assay: Antiviral activity against NNRTI-resistant HIV-1 RES056 infected in human MT4 cells assessed as virus-induced cytopathicity treated for 5 days by MTT assay; type: functional, organism-based; conditions: Human immunodeficiency virus 1, RES056, MT4, 120 h
[2] = Cytotoxicity against human MT4 cells assessed as reduction in cell viability treated for 5 days by MTT assay; type: toxicity, cell-based; conditions: time 5 day
[3] = tested on: Human immunodeficiency virus 1; assay: Antiviral activity against HIV-1 harboring L100I mutant infected in human MT4 cells assessed as virus-induced cytopathicity treated for 5 days by MTT assay; type: functional, organism-based; conditions: Human immunodeficiency virus 1, MT4, 120 h
[4] = tested on: Human immunodeficiency virus 1; assay: Antiviral activity against HIV-1 harboring Y181C mutant infected in human MT4 cells assessed as virus-induced cytopathicity treated for 5 days by MTT assay; type: functional, organism-based; conditions: Human immunodeficiency virus 1, MT4, 120 h
[5] = tested on: Human immunodeficiency virus 1; assay: Antiviral activity against wild-type HIV-1 IIIB infected in human MT4 cells assessed as virus-induced cytopathicity treated for 5 days by MTT assay; type: functional, organism-based; conditions: Human immunodeficiency virus 1, IIIB, MT4, 120 h
[6] = Selectivity index, ratio of CC50 for human MT4 cells to EC50 for wild-type HIV-1 IIIB infected in human MT4 cells; type: toxicity, cell-based; conditions: read-out: Selectivity Index
[7] = Selectivity index, ratio of CC50 for human MT4 cells to EC50 for NNRTI-resistant HIV-1 RES056 infected in human MT4 cells; type: toxicity, cell-based; conditions: read-out: Selectivity Index
[8] = molecular target: Human immunodeficiency virus type 1 reverse transcriptase (Human immunodeficiency virus 1, UniProt Q72547); assay: Inhibition of wild-type HIV-1 reverse transcriptase assessed as inhibition of biotin-dUTP incorporation
[9] = tested on: Human immunodeficiency virus 1; assay: Antiviral activity against HIV-1 harboring K103N mutant infected in human MT4 cells assessed as virus-induced cytopathicity treated for 5 days by MTT assay; type: functional, organism-based; conditions: Human immunodeficiency virus 1, MT4, 120 h; read-out: EC50
[10] = tested on: Human immunodeficiency virus 1; assay: Antiviral activity against HIV-1 harboring Y188L mutant infected in human MT4 cells assessed as virus-induced cytopathicity treated for 5 days by MTT assay; type: functional, organism-based; conditions: Human immunodeficiency virus 1, MT4, 120 h; read-out: EC50
[11] = tested on: Human immunodeficiency virus 1; assay: Antiviral activity against HIV-1 E138K mutant infected in human MT4 cells assessed as virus-induced cytopathicity treated for 5 days by MTT assay; type: functional, organism-based; conditions: Human immunodeficiency virus 1, MT4, 120 h; read-out: EC50
[12] = tested on: Human immunodeficiency virus 1; assay: Antiviral activity against HIV-1 F227L/V106A mutant infected in human MT4 cells assessed as virus-induced cytopathicity treated for 5 days by MTT assay; type: functional, organism-based; conditions: Human immunodeficiency virus 1, MT4, 120 h; read-out: EC50
Cytochrome P450 1A2 = molecular target: T1, Cytochrome P450 1A2 (Homo sapiens, UniProt P05177); assay: Inhibition of CYP1A2 (unknown origin); type: ADME
T1 sequence (P05177 whole entry): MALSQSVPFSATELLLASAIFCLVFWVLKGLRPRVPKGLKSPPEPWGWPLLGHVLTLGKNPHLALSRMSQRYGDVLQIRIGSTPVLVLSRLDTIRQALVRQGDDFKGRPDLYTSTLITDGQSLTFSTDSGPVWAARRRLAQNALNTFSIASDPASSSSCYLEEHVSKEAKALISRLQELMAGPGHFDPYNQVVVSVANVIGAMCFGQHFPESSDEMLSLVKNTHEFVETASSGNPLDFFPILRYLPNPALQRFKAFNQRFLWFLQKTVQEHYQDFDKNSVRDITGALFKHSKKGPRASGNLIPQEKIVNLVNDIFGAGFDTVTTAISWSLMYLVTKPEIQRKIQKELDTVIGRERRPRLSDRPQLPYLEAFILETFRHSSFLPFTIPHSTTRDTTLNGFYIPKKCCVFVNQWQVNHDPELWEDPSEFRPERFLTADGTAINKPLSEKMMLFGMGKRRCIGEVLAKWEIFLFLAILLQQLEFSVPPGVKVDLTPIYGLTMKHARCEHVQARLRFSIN

Cytochrome P450 2C9 = Cytochrome P450 2C9 (Homo sapiens, UniProt P11712); assay: Inhibition of CYP2C9 (unknown origin); type: ADME
Sequence of Cytochrome P450 2C9 (P11712 whole entry): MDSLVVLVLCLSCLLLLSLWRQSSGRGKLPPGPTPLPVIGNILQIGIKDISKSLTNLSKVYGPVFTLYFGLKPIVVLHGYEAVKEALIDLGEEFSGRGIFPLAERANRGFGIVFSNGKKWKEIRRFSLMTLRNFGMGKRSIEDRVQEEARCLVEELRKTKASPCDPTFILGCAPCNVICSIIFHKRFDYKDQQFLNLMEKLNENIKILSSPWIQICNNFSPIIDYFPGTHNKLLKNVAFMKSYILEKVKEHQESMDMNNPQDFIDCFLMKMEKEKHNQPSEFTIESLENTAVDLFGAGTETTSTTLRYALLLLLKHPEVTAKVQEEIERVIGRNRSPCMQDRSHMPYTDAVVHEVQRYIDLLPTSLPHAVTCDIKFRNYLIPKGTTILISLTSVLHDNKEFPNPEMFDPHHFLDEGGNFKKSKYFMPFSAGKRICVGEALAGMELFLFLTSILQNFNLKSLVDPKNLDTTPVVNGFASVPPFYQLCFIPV

Cytochrome P450 2C19 = Cytochrome P450 2C19 (Homo sapiens, UniProt P33261); assay: Inhibition of CYP2C19 (unknown origin); type: ADME
Sequence of Cytochrome P450 2C19 (P33261 whole entry): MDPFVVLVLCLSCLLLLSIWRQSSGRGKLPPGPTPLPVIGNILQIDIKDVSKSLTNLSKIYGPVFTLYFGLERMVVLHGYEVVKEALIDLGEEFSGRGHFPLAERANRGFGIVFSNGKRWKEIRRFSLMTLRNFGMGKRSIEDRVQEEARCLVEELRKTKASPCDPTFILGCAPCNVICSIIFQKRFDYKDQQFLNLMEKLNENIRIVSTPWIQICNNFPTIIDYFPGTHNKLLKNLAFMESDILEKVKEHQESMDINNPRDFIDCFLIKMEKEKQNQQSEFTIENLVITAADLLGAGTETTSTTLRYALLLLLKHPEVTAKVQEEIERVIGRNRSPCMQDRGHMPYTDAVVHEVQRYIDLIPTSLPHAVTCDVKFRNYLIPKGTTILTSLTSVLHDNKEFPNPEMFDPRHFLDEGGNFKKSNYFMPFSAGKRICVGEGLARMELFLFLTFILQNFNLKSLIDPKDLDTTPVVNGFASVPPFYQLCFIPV

Cytochrome P450 2D6 = Cytochrome P450 2D6 (Homo sapiens, UniProt P10635); assay: Inhibition of CYP2D6 (unknown origin); type: ADME
Sequence of Cytochrome P450 2D6 (P10635 whole entry): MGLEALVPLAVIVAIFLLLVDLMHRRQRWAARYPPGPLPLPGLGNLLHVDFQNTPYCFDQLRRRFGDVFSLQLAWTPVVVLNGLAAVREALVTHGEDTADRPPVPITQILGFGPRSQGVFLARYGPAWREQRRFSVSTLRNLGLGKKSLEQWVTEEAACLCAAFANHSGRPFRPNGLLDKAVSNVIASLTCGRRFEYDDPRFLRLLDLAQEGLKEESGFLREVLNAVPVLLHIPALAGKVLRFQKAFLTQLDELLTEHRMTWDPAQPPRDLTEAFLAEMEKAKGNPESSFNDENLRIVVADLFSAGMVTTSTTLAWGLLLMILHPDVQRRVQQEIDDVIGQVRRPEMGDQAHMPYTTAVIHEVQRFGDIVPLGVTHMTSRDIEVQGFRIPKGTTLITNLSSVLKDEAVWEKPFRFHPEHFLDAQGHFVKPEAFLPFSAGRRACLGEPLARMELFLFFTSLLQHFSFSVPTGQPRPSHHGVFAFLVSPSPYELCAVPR

Cytochrome P450 3A4 = Cytochrome P450 3A4 (Homo sapiens, UniProt P08684); assay: Inhibition of CYP3A4 (unknown origin) using midazolam as substrate; type: ADME
Sequence of Cytochrome P450 3A4 (P08684 whole entry): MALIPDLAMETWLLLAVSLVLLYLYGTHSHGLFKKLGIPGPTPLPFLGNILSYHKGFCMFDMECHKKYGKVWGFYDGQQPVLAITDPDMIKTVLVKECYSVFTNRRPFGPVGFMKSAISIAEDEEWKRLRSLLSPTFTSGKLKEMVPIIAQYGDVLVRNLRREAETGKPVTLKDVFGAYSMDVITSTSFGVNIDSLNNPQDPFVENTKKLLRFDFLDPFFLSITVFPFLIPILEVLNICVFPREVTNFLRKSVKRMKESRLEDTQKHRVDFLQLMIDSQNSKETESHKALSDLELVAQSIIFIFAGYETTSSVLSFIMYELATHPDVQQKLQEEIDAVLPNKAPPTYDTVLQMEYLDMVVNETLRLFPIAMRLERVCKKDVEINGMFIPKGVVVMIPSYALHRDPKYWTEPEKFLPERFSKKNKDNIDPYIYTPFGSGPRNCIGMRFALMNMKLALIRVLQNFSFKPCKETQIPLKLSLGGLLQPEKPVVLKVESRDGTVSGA

Row | Structure (SMILES) | EC50 [1] [nM] | CC50 at 120 h [2] [nM] | EC50 ([3]; read-out: EC50) [nM] | EC50 ([3]; read-out: pEC50 (converted)) [nM] | EC50 ([4]; read-out: EC50) [nM] | EC50 ([4]; read-out: pEC50 (converted)) [nM] | EC50 [5] [nM] | selectivity ratio [6] | selectivity ratio [7] | IC50 [8] [nM] | EC50 [9] [nM] | EC50 [10] [nM] | EC50 [11] [nM] | EC50 [12] [nM] | IC50 (Cytochrome P450 1A2) [nM] | IC50 (Cytochrome P450 2C9) [nM] | IC50 (Cytochrome P450 2C19) [nM] | IC50 (Cytochrome P450 2D6) [nM] | IC50 (Cytochrome P450 3A4) [nM]
1 | Cc1cc(C#N)cc(C)c1Oc1nc(Nc2ccc(C#N)cc2)nc(N)c1Br [ETRAVIRINE] | 52.2 | > 4590 | 11.7 | 11.7 | 16.6 | 17 |  |  |  |  |  |  |  |  |  |  |  |  | 
2 | CC(=O)c1ccc(-c2cnc(NC3CCN(Cc4ccc(S(N)(=O)=O)cc4)CC3)nc2Oc2c(C)cc(/C=C/C#N)cc2C)cc1 | 40.7 | 8090 | 10.8 |  | 10.2 |  | 5.34 | 1520 | 198 | 130 | 5.18 | 28.5 | 12 | 22.6 |  |  |  |  | 
3 | Cc1cc(/C=C/C#N)cc(C)c1Oc1nc(NC2CCN(Cc3ccc(S(C)(=O)=O)cc3)CC2)ncc1-c1ccc(N)cc1 | 34.1 | 6740 | 4.68 |  | 8.09 |  | 4.46 | 1510 | 198 | 159 | 4.92 | 33.2 | 7.47 | 7.8 |  |  |  |  | 
4 | Cc1cc(/C=C/C#N)cc(C)c1Oc1nc(NC2CCN(Cc3ccc(S(N)(=O)=O)cc3)CC2)ncc1-c1ccc2c(c1)OCO2 | 47 | 6400 | 10.6 |  | 10.7 |  | 5.48 | 1170 | 136 | 122 | 6.3 | 47.8 | 40.5 | 35.7 |  |  |  |  | 
5 | Cc1cc(/C=C/C#N)cc(C)c1Oc1nc(NC2CCN(Cc3ccc(S(N)(=O)=O)cc3)CC2)ncc1-c1cccc(O)c1 | 36.1 | 7850 | 11.6 |  | 16 |  | 6.32 | 1240 | 215 | 115 | 5.61 | 33 | 18.5 | 25 |  |  |  |  | 
6 | Cc1cc(/C=C/C#N)cc(C)c1Oc1nc(NC2CCN(Cc3ccc(C(N)=O)cc3)CC2)ncc1-c1cccc(N)c1 | 22.4 | 8370 | 11 |  | 10.1 |  | 5.66 | 1480 | 373 | 138 | 5.62 | 51 | 9.11 | 16.6 |  |  |  |  | 
7 | Cc1cc(/C=C/C#N)cc(C)c1Oc1nc(NC2CCN(Cc3ccc(C(N)=O)cc3)CC2)ncc1-c1cccc(O)c1 | 35.2 | 36900 | 11.6 |  | 9.7 |  | 4.62 | 8000 | 1050 | 88 | 5.31 | 39.3 | 21.1 | 13.1 |  |  |  |  | 
8 | Cc1cc(/C=C/C#N)cc(C)c1Oc1nc(NC2CCN(Cc3ccc(S(N)(=O)=O)cc3)CC2)ncc1-c1ccc(O)cc1 | 26.1 | 4440 | 3.68 |  | 7.77 |  | 3.83 | 1160 | 170 | 91 | 4.13 | 31.3 | 7.65 | 12.7 |  |  |  |  | 
9 | Cc1cc(/C=C/C#N)cc(C)c1Cc1nc(NC2CCN(Cc3ccc(S(N)(=O)=O)cc3)CC2)ncc1-c1cncnc1 | 37.8 | 11300 | 4.52 |  | 8.21 |  | 5.4 | 2090 | 299 | 117 | 5.02 | 41.9 | 13.4 | 15.3 |  |  |  |  | 
10 | Cc1cc(/C=C/C#N)cc(C)c1Oc1nc(NC2CCN(Cc3ccc(C(N)=O)cc3)CC2)ncc1-c1ccc2c(c1)OCO2 | 38.3 | 5320 | 8.21 |  | 9.42 |  | 4.17 | 1280 | 139 | 110 | 5.64 | 58.1 | 19.4 | 46.9 |  |  |  |  | 
11 | Cc1cc(/C=C/C#N)cc(C)c1Oc1nc(NC2CCN(Cc3ccc(S(N)(=O)=O)cc3)CC2)ncc1-c1cccc(N)c1 | 25.8 | 6940 | 7.05 |  | 103 |  | 6.16 | 1130 | 269 | 134 | 6.11 | 46.5 | 11.2 | 11.4 |  |  |  |  | 
12 | Cc1cc(/C=C/C#N)cc(C)c1Oc1nc(NC2CCN(Cc3ccc(C(N)=O)cc3)CC2)ncc1-c1ccc(N)cc1 | 18.9 | 3910 | 3.31 |  | 4.81 |  | 3.41 | 1140 | 207 | 108 | 3.53 | 22.8 | 5.05 | 9.18 |  |  |  |  | 
13 | Cc1cc(/C=C/C#N)cc(C)c1Cc1nc(NC2CCN(Cc3ccc(S(C)(=O)=O)cc3)CC2)ncc1-c1cncnc1 | 14 | 2900 | 3.14 |  | 5.45 |  | 3.65 | 796 | 207 | 104 | 3.6 | 22.1 | 5.95 | 9.14 | > 50000 | 9580 | > 50000 | 25800 | 6540
14 | Cc1cc(/C=C/C#N)cc(C)c1Oc1nc(NC2CCN(Cc3ccc(S(N)(=O)=O)cc3)CC2)ncc1-c1ccc(N)cc1 | 23.4 | 3810 | 3.23 |  | 5.37 |  | 3.64 | 1050 | 185 | 97 | 3.85 | 24.9 | 8.93 | 9.02 |  |  |  |  | 
